Reference: PubChem BioAssay AID2060895 (Molecular Pharmacology Branch, DTP, NCI, 2025)
Values joined by “and” are separate entries in the source; they are usually repeats but may differ in a detail not shown here. Identical values can stand only once.

Test system: PDC 899932-113-R3-J6 complex spheroid viability
Test: Anticancer human tumor 899932-113-R3-J6-PDC patient-derived melanoma cell line growth inhibition [RAS]
Details: for viability, T/C: stronger effect = lower value
Excerpt: RAS pathway inhibitors in Combinations in Complex Spheroids
A high-throughput screen of multi-cell type tumor spheroids was designed to identify active combinations of RAS pathway inhibitors and targeted small molecules. Complex spheroids include a stromal component modeled by human endothelial cells (HUVEC) and fibroblasts modeled by human mesenchymal stem cells (MSCs). The concentration ranges selected for each drug and investigational agent were based upon clinically achievable concentrations if the clinical Cmax of the agent was known.
Compounds. The drugs and investigational agents: abemaciclib (NSC768073), cobimetinib (NSC768068), divarasib (GDC6063, NSC841802), docetaxel (NSC628503), GDC-1971 (RLY-1971, NSC841576), gemcitabine (NSC613327), inavolisib (NSC800729), ipatasertib (NSC767898), KB-0742 (NSC834161), MRTX-1133 (NSC836407), osimertinib (NSC779217), RMC-4630 (NSC839698), RMC-6236 (NSC851965), RMC-6291 (NSC852671), Ro-3306 (NSC812927), sapanisertib (NSC764658), SN-38 (NSC673596), staurosporine (NSC755774), SY5609 (NSC837396), and tovorafenib (DAY101, NSC766906), were obtained from the National Cancer Institute (NCI) Developmental Therapeutics Program Chemical Repository. The FDA-approved anticancer drug set is available from the NCI Developmental Therapeutics Program. […] The stock solutions were prepared in dimethyl sulfoxide (DMSO, Sigma-Aldrich, St. Louis, MO, cat. D2650) at 800-fold the tested concentration and stored at -70 degrees C prior to their use. All drugs and investigational agents were tested over a range starting from a high concentration at or near the clinical Cmax and decreasing in half-log increments. If the clinical Cmax for an agent had not been determined, the highest concentration tested was 10 microM.
Cell Culture. All cells were maintained in an incubator at 37 degrees C and 5% CO2 with 95% humidity. The PDC lines were cultured according to standard operating procedures established by the NCI PDMR. All PDCs were thawed and cultured in Matrigel-coated flasks prepared with a working solution of 1X Ham's F-12 nutrient mix, without supplementation (Invitrogen, Waltham, MA, cat. 11765054), 100 U/mL penicillin-streptomycin (Invitrogen, cat. 15140122), and 2.5% Matrigel (Corning Inc., Corning, NY, cat. 354248) for the first three passages. The 362531-283-R-J2-PDC and 782815-120-R-J1-PDC lines were cultured in 6C/Colon 1B media, which includes advanced DMEM/F-12 (Thermo Fisher Scientific, cat. 12634028), 10 mM HEPES (Thermo Fisher Scientific, cat. 15630080), 1X GlutaMAX supplement (Thermo Fisher Scientific, cat. 35050061), 0.1 mg/mL primocin (InvivoGen, San Diego, CA, cat. ant-pm-2), 10% defined fetal bovine serum, heat inactivated (HyClone Laboratories Inc., Logan, UT, cat. SH30070.03HI), 50% L-WRN conditioned media (ATCC, cat. CRL-3276), 1.25 mM N-Acetyl-L-cysteine (Sigma-Aldrich, cat. A9165), 10 mM nicotinamide (Sigma-Aldrich, cat. N0636), 1X B-27 supplement (Thermo Fisher Scientific, cat. 17504044), 1X N-2 supplement (Thermo Fisher Scientific, cat. 17502048), 50 ng/mL human EGF (Thermo Fisher Scientific, cat. PHG0311), and 10 microM Y-27632 dihydrochloride (Tocris Bioscience, cat. 1254). The K12877-001-R-J1-PDC line was cultured in 6I media, which includes all 6C/Colon 1B media plus 10 ng/mL human FGF-10 (PeproTech, cat. 100-26), 1 ng/mL human FGF-2 (PeproTech, cat. 100-18B), 1 µM prostaglandin E2 (Tocris Bioscience, cat. 2296), […] hydrocortisone (Sigma-Aldrich, cat. H4001), and […] bovine insulin (Sigma-Aldrich, cat. I6634). The K86415-001-R-J1-PDC line was cultured in 6D media, which includes all 6C/Colon 1B media components minus the L-WRN conditioned media. The 485176-168-R4-J1-PDC was cultured in PANC media, which includes all 6C/Colon 1B media plus 100 ng/mL human FGF-10 (PeproTech, cat. 100-26), 500 nM SB-431542 (Selleckchem, cat. S1067), and 10 nM gastrin (Tocris Bioscience, cat. 3006). […]

[1] = compound alone, run of 09/09/2024
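Throughout, for viability, T/C: spheroids exposed to agents for seven days before readout; 100% = DMSO vehicle control wells.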

SMILES	IC50 (curve of compound)	viability, T/C (compound 0.0316 µM)	viability, T/C (compound 0.1 µM)	viability, T/C (compound 0.316 µM)	viability, T/C (compound 1 µM)	viability, T/C (compound 3.16 µM)	viability, T/C (compound 10 µM)	viability, T/C (compound 0.00316 µM)	also measured
C#Cc1c(F)ccc2cc(O)cc(-c3ncc4c(N5CC6CCC(C5)N6)nc(OCC56CCCN5CC(F)C6)nc4c3F)c12 (stereo not given)	–	108% [middle of 8 runs]	109% [middle of 8 runs]	107% [middle of 8 runs]	112% [middle of 8 runs]	111% [middle of 8 runs]	110% [middle of 8 runs]	–	IC50 [1]: > 10000 nM
C=CC(=O)Nc1cc(Nc2nccc(-c3cn(C)c4ccccc34)n2)c(OC)cc1N(C)CCN(C)C	> 1000 nM	101% [middle of 4 runs]	104% and 102% (2×) and 101%	106% [middle of 4 runs]	100% [middle of 4 runs]	–	–	109% [middle of 4 runs]	viability, T/C (compound 0.01 µM): 98.4% [middle of 4 runs]
CC(Nc1ccc2c(c1)OCCn1cc(N3C(=O)OCC3C(F)F)nc1-2)C(N)=O (stereo not given)	1.74 µM [middle of 4 runs]	104% [middle of 4 runs]	71.2% [middle of 4 runs]	63.9% [middle of 4 runs]	58.4% [middle of 4 runs]	46.1% (2×) and 45.7% and 46%	35.1% [middle of 4 runs]	–	–
CC1(O)CCCC1n1c(=O)c(C(F)F)cc2cnc(NC3CCN(S(C)(=O)=O)CC3)nc21 (stereo not given)	–	100% [middle of 4 runs]	83.3% [middle of 4 runs]	69.4% [middle of 4 runs]	65.9% [middle of 4 runs]	58.3% [middle of 4 runs]	21.9% [middle of 4 runs]	–	–
CCC(CC)c1cc(NC2CCC(N)C2)n2nccc2n1 (stereo not given)	1.63 µM [middle of 4 runs]	106% [middle of 4 runs]	94.7% [middle of 4 runs]	99.3% [middle of 4 runs]	–	1.29% [middle of 4 runs]	1% [middle of 4 runs]	–	–
CCc1c2c(nc3ccc(O)cc13)-c1cc3c(c(=O)n1C2)COC(=O)[C@]3(O)CC	–	–	–	–	–	–	–	–	viability, T/C (compound 0.000949 µM): 94.3% [middle of 4 runs]; viability, T/C (compound 0.003 µM): 69.3% [middle of 4 runs]; viability, T/C (compound 0.00949 µM): 58.9% [middle of 4 runs]; viability, T/C (compound 0.03 µM): 48.3% [middle of 4 runs]; viability, T/C (compound 0.0949 µM): 42.1% [middle of 4 runs]; viability, T/C (compound 0.3 µM): 32.8% [middle of 4 runs]
CCn1c(-c2cc(N3CCN(C)CC3)cnc2C(C)OC)c2c3cc(ccc31)-c1csc(n1)CC(NC(=O)C1CC1C)C(=O)N1CCCC(N1)C(=O)OCC(C)(C)C2 (stereo not given)	–	–	–	–	–	–	–	–	viability, T/C (compound 0.000949 µM): 76% [middle of 8 runs]; viability, T/C (compound 0.003 µM): 38.2% [middle of 8 runs]; viability, T/C (compound 0.00949 µM): 3.79% [middle of 8 runs]; viability, T/C (compound 0.03 µM): 3.16% [middle of 8 runs]; viability, T/C (compound 0.0949 µM): 2.66% [middle of 8 runs]; viability, T/C (compound 0.3 µM): 2.33% [middle of 8 runs]; IC50 (compound alone, run of 08/26/2024): 2.05 nM [middle of 7 runs]
CCn1c(-c2cccnc2C(C)OC)c2c3cc(ccc31)N1CCOC(CC(NC(=O)C(C(C)C)N(C)C(=O)C3(F)CCN(C(=O)C#CC(C)(C)N(C)C)CC3)C(=O)N3CCCC(N3)C(=O)OCC(C)(C)C2)C1 (stereo not given)	–	–	–	–	–	–	–	–	viability, T/C (compound 0.000949 µM): 110% [middle of 8 runs]; viability, T/C (compound 0.003 µM): 108% [middle of 8 runs]; viability, T/C (compound 0.00949 µM): 105% [middle of 8 runs]; viability, T/C (compound 0.03 µM): 106% [middle of 8 runs]; viability, T/C (compound 0.0949 µM): 98.7% [middle of 8 runs]; viability, T/C (compound 0.3 µM): 92.5% [middle of 8 runs]; IC50 (compound alone, run of 08/20/2024): > 300 nM
C[C@@H](NC(=O)c1ncnc(N)c1Cl)c1ncc(C(=O)Nc2cc(C(F)(F)F)c(Cl)cn2)s1	7.59 µM [middle of 4 runs]	126% [middle of 4 runs]	132% [middle of 4 runs]	–	–	105% [middle of 4 runs]	32.6% [middle of 4 runs]	–	–
Nc1ccn(C2OC(CO)C(O)C2(F)F)c(=O)n1 (stereo not given)	17 nM and 10.3 nM and 16.8 nM	32.3% [middle of 4 runs]	19.3% [middle of 4 runs]	21% [middle of 4 runs]	22.2% [middle of 4 runs]	–	–	103% (2×) and 77.4% and 105%	viability, T/C (compound 0.01 µM): 65.5% [middle of 4 runs]
O=C(c1ccc(F)c(F)c1Nc1ccc(I)cc1F)N1CC(O)([C@@H]2CCCCN2)C1	7.85 nM [middle of 4 runs]	6.94% [middle of 4 runs]	3.21% [middle of 4 runs]	1.96% [middle of 4 runs]	1.06% [middle of 4 runs]	–	–	74% [middle of 4 runs]	–

Continued, in another order:

IC50 (curve of compound)	SMILES	viability, T/C (compound 0.0316 µM)	viability, T/C (compound 0.1 µM)	viability, T/C (compound 0.316 µM)	viability, T/C (compound 1 µM)	viability, T/C (compound 3.16 µM)	viability, T/C (compound 10 µM)	viability, T/C (compound 0.00316 µM)	also measured
> 1000 nM	C=CC(=O)N1CCN(c2nc(OCC3CCCN3C)nc3c(F)c(-c4nc(N)cc(C)c4C(F)(F)F)c(Cl)cc23)C(C)C1 (stereo not given)	108% [middle of 12 runs]	107% [middle of 12 runs]	105% [middle of 12 runs]	103% [middle of 12 runs]	–	–	109% [middle of 12 runs]	viability, T/C (compound 0.01 µM): 108% [middle of 12 runs]; IC50 [1]: > 1000 nM
5.72 µM [middle of 4 runs]	CC(C)NCC(C(=O)N1CCN(c2ncnc3c2C(C)CC3O)CC1)c1ccc(Cl)cc1 (stereo not given)	110% [middle of 4 runs]	99.1% [middle of 4 runs]	97.7% [middle of 4 runs]	84.7% [middle of 4 runs]	62.5% [middle of 4 runs]	39.9% [middle of 4 runs]	–	–
> 100 nM and 76 nM and 69.3 nM	CC(C)n1nc(-c2ccc3oc(N)nc3c2)c2c(N)ncnc21	71.8% [middle of 4 runs]	–	–	–	–	–	116% [middle of 4 runs]	viability, T/C (compound 0.000316 µM): 107% [middle of 4 runs]; viability, T/C (compound 0.001 µM): 102% [middle of 4 runs]
15 nM [middle of 4 runs]	CC1(C)CCC(Nc2ncc(C(F)(F)F)c(-c3c[nH]c4c(P(C)(C)=O)c(C#N)ccc34)n2)CN1 (stereo not given)	–	–	–	–	–	–	–	viability, T/C (compound 0.000949 µM): 98.3% [middle of 4 runs]; viability, T/C (compound 0.003 µM): 75.5% [middle of 4 runs]; viability, T/C (compound 0.00949 µM): 53.9% [middle of 4 runs]; viability, T/C (compound 0.03 µM): 44.4% [middle of 4 runs]; viability, T/C (compound 0.0949 µM): 18.4% [middle of 4 runs]; viability, T/C (compound 0.3 µM): 12.9% [middle of 4 runs]
583 nM [middle of 4 runs]	CCN1CCN(Cc2ccc(Nc3ncc(F)c(-c4cc(F)c5nc(C)n(C(C)C)c5c4)n3)nc2)CC1	97% [middle of 4 runs]	80.7% [middle of 4 runs]	71% [middle of 4 runs]	30.1% [middle of 4 runs]	–	–	104% [middle of 4 runs]	viability, T/C (compound 0.01 µM): 97.6% [middle of 4 runs]
